Experimental data taken from US20150231238A1, “OVERCOMING RESISTANCE TO ERBB PATHWAY INHIBITORS” (MERRIMACK PHARMACEUTICALS, INC., priority 2011, published 2015).

How the values were obtained:
pAKT in A2780cis cells = experiment: pAKT (ser473) western blot in cisplatin-resistant cells; format: cell-based, human; conditions: cisplatin 0.1 to 10 μM or MM-121 0.01 to 1 μM, 1, 4, 24 or 72 hours
Procedure: (§1) After incubation cell lysates are prepared and analyzed for pAKT (ser473) (Cat #9271 Cell Signaling Technologies) by western blot.
(§2) The effect of MM-121 on the AKT pathway is determined by treating sensitive (A2780) and resistant (A2780cis) cells with a dose range of MM-121 ((0.01 to 1 μM) in vitro for 1, 4, 24 or 72 hours. After incubation cell lysates are prepared and analyzed for pAKT (ser473) (Cat. #9271 Cell Signaling Technologies) by western blot.
(§3) Cell lysates are analyzed by western blot for pAKT.

A2780cis cells = experiment: Cell Titer Glo cell viability after cisplatin, resistant versus sensitive line; format: cell-based, human; conditions: cisplatin 0.01 to 10 μM, 72 hours
Procedure: The A2780 human ovarian cancer cell line was originally established from tumor tissue from an untreated patient. The A2780cis cell line is cisplatin-resistant (Cat. #93112517, Sigma). […] A2780cis is cross-resistant to melphalan, adriamycin and irradiation.
Cell viability is measured using the Cell Titer Glo assay (Cat. # G7570, Promega) according to the manufacturer's instructions.
Cell viability was measured by the Cell Titer Glo assay which measures metabolically active cells by quantitating ATP.

pAKT in A2780 cells = experiment: pAKT (ser473) western blot in cisplatin-sensitive cells; format: cell-based, human; conditions: cisplatin 0.1 to 10 μM, especially after 24 hours and/or 10 μM
Procedure: as §1, §2, §3

[1] = test system: pAKT in heregulin-stimulated BT474-M3 cells; experiment: Inhibition of AKT phosphorylation in heregulin-stimulated cells; format: cell-based; conditions: dose range
BT474-M3 cells = experiment: In vitro breast cancer model, viable cell count after 6 days; format: cell-based
[2] = test system: ErbB3, Akt and ERK1/2 signaling in BT474-M3-GFP-HRG tumors; experiment: Target and downstream signaling in BT474-M3-GFP-HRG tumor lysates (Luminex, western blot); format: in vivo, mice; conditions: for activity in reducing pErbB3 levels with tumoral HRG expression: versus BT474-M3-GFP; for ratio of pERK and totERK levels / ratio of pErbB3 to total ErbB3 / ratio of phospho-Akt to total Akt: in the presence of HRG
Procedure: (§4) At the end of study (21 or 25 days after initiation of treatment for BT474-M3-GFP-HRG and BT474-M3-GFP, respectively) tumor samples were collected (24 h after the last MM-111 and 6 h after the last lapatinib dose) and analyzed for target and downstream signaling inhibition. Total and phosphorylated ErbB3 and Akt protein levels were analyzed from tumor lysates by suspension array technology (Luminex) and total and phosphorylated Erk1/2 levels by western blot using PCNA to normalize the results.

NCI-N87 tumors = conditions: paclitaxel 20 mpk q7d, trastuzumab 3.5 mpk q3d, MM-111 48 mpk q3d
Procedure: 7.5×10^6 NCI-N87 cells were implanted subcutaneously in the flanks of female Nu/Nu mice. When tumor volumes reached on average 341 mm^3 (on day 24 after tumor implantation) mice were segregated into 4 groups of 10 mice. […] Tumors were measured twice a week with a digital caliper.

BT474-M3-GFP-HRG tumors = experiment: BT474-M3-GFP-HRG tumor xenograft growth; format: in vivo, mice; conditions: Example 10; MM-111 48 mpk q3d i.p., tamoxifen 5 mg; versus BT474-M3-GFP
Procedure: 15×10^6 BT474-M3 cells engineered to express GFP (BT474-M3-GFP) or BT474-M3 cells engineered to express GFP and heregulin 1 (BT474-M3-GFP-HRG) were implanted in to the mammary fat pads of estrogen supplemented (0.72 mg 17β-estradiol in a 60-day slow release biodegradable carrier) female NCr/NU-mice (Taconic Farms, Inc). When tumor volumes reached on average 516 mm^3 (BT474-M3-GFP-HRG on day 17 after tumor implantation) or 422 mm^3 (BT474-M3-GFP on day 20 after tumor implantation), mice were segregated into 8 groups of 10-15 mice. Groups received either no treatment (Control), MM-111 (48 mpk q3d i.p. (dose every three days, intraperitoneally)), lapatinib (150 mpk qd p.o. (oral dose daily)), tamoxifen (5 mg free base tamoxifen in a 60-day slow release biodegradable carrier), MM-111 and lapatinib, MM-111 and tamoxifen, lapatinib and tamoxifen or MM-111, lapatinib and tamoxifen. Tumors were measured twice a week with a digital caliber.

[3] = test system: BT474-M3 parental (wild-type) cells; experiment: Cell proliferation assay (WST-1), parental cells; format: cell-based; conditions: series dilution, five days
Procedure: (§5) After five days of treatment, cell viability is measured by WST-1 (Roche, Cat. #5015944001) according to manufacturer's instructions. Cells treated with control (RPMI1640 with 10% FBS) are set as 100%, other treatments are expressed as percentage of the control.

[4] = test system: trastuzumab-resistant BT474-M3 cell spheroids; experiment: Spheroid assay, trastuzumab-resistant cells; format: cell-based
Procedure: (§6) Cells are cultured for six days. Spheroids are then examined by Nikon microscope and analyzed by MetaMorph® Image Analysis Software (Molecular Devices). The spheroid size from cells cultured in medium containing 10% FBS is set as a control.

[5] = test system: BT474-M3 breast cancer xenograft; experiment: BT474-M3 breast cancer xenograft model; format: in vivo, mice; conditions: MM-111 3 mg/kg every 3 days, trastuzumab 1 mg/kg weekly
Procedure: BT474-M3 cells (2×10^7 cells per mice) are inoculated subcutaneously into Nu/Nu immunodeficient mice, which are implanted with an estrogen pellet (0.72 mg; 60-day release) one day before the experiment. […] Tumors are measured twice a week and the experiment is ended at day 40.

[6] = test system: ErbB3, Akt and ERK1/2 signaling in BT474-M3-GFP tumors; experiment: Target and downstream signaling in BT474-M3-GFP tumor lysates (Luminex, western blot); format: in vivo, mice; conditions: end of study tumor lysates
Procedure: as §4

[7] = test system: trastuzumab-resistant BT474-M3 cells; experiment: Cell proliferation assay (WST-1), trastuzumab-resistant cells; format: cell-based; conditions: series dilution, five days
Procedure: as §5

[8] = test system: BT474-M3 wild type cell spheroids; experiment: Spheroid assay, parental cells; format: cell-based; conditions: series dilution, six days
Procedure: as §6

[9] = test system: EGFR wild-type NSCLC cell lines; experiment: Spheroid assay (CellTiter Glo live cell density) in EGFR wild-type NSCLC cell lines; format: cell-based
Procedure: The cell lines bear no mutations within their EGFR genes and represent three distinct histological subtypes (see Table X below). Cells harboring Ras mutations are indicated.
Relative live cell densities were then determined using the CellTiter Glo® reagent (Promega).

[10] = test system: heregulin-induced phosphorylation of ErbB3, AKT and ERK in ACHN, Du145 and OvCAR8 cells; experiment: ELISA of heregulin-induced pErbB3, pAKT and pERK in cell lysates; format: cell-based
Procedure: In the first set of experiments, three cancer cell lines (ACHN (renal cell adenocarcinoma, ATCC® #CRL-1611™), Du145 (prostate carcinoma, ATCC® #HTB-81™) and OvCAR 8 (ovarian adenocarcinoma, ATCC® #HTB-161™) cell lines; obtained from the National Cancer Institute's Developmental Therapeutics Program) were seeded at 35,000 cells per well in 96-well plates and grown overnight (maintenance culture medium was RPMI-1640 media supplemented with 10% fetal calf serum, 2 mM L-glutamine, and Pen-Strep; cells were grown in a humidified atmosphere at 5% CO2, 95% air at 37° C.). Cells were synchronized by 20-24 hour serum starvation. The cells were then pre-incubated with 4-fold serial dilutions, ranging from […] to 7.6 pM, of MM-121 for 30 minutes. […]
For ELISA analysis of cell lysates, capture antibodies against ErbB1 (R&D Systems AF231), ErbB2 (R&D Systems, MAB1129), ErbB3 (R&D Systems, MAB 3481) and AKT (Upstate, 05-591 MG) were incubated in 384 well black flat-bottom polystyrene high-binding plates (Corning, 3708) overnight at room temperature. […] All ELISAs were visualized with SuperSignal® ELISA Pico Chemiluminescent Substrate (Pierce, Cat. #37069) and luminescent signal was measured using a luminometer.
Inhibitor IC50 values were calculated by least-squares fitting the dose response data with a sigmoidal curve (GraphPad Prism®, GraphPad Software, Inc., La Jolla, Calif.).

[11] = in the presence of 5 nM heregulin

Q: What does the source list for `N.N.[Cl][Pt][Cl]` [cisplatin]?
A: pAKT production (pAKT in A2780cis cells): no effect on pAKT production; cell viability (percentage of media control), A2780cis versus A2780 (A2780cis cells): much greater viability; pAKT production (pAKT in A2780 cells): decrease in pAKT production

Q: With `CS(=O)(=O)CCNCc1ccc(-c2ccc3ncnc(Nc4ccc(OCc5cccc(F)c5)c(Cl)c4)c3c2)o1` [lapatinib, reference compound] as the molecule, how does the “inhibition of AKT phosphorylation” value [1] read?
A: The value was “inhibited phosphorylation of AKT”.

Q: And the “inhibition of cell proliferation” value (BT474-M3 cells; basal conditions)?
A: Its value is 50%.

Q: What about the “inhibition of cell proliferation” value (BT474-M3 cells; [11]) of the same molecule?
A: The value was 23%.

Q: What about the “activity in reducing pErbB3 levels with tumoral HRG expression” value ([2]; end of study tumor lysates) of the same molecule?
A: The value was “decreased”.

Q: What about the “ratio of pERK and totERK levels” value [2] of the same molecule?
A: The value was “decreased effectiveness”.

Q: And the “ratio of pErbB3 to total ErbB3” value [2]?
A: Its value is “effectiveness was reduced in the presence of HRG”.

Q: And the “ratio of phospho-Akt to total Akt” value [2]?
A: The value was “decreased effectiveness”.

Q: `CC(=O)O[C@H]1C(=O)[C@@]2(C)[C@H]([C@H](OC(=O)c3ccccc3)[C@]3(O)C[C@H](OC(=O)[C@H](O)[C@@H](NC(=O)c4ccccc4)c4ccccc4)C(C)=C1C3(C)C)[C@]1(OC(C)=O)CO[C@@H]1C[C@@H]2O` [paclitaxel] was tested. Which tumor growth (NCI-N87 tumors) did it give?
A: The tumor growth was “only tumor stasis at best”.

Q: Which “effect of tumoral HRG overexpression on efficacy (tumor volume)” value (BT474-M3-GFP-HRG tumors) does the source give for `CC/C(=C(\c1ccccc1)c1ccc(OCCN(C)C)cc1)c1ccccc1` [tamoxifen, reference compound] here?
A: Its value is “improved”.

Q: Which results are given for “MM-111: bispecific anti-ErbB3, anti-ErbB2 antibody, two scFvs in a Human Serum Albumin conjugate, SEQ ID NO:44”?
A: inhibition of cell proliferation [3]: maintained similar inhibitory activity; inhibition of spheroid growth in combination with gefitinib ([4]; in the presence of 100 nM gefitinib): effective at inhibiting cell growth; inhibition of spheroid growth in combination with erlotinib ([4]; in the presence of 300 nM erlotinib): effective at inhibiting cell growth; inhibitory activity in trastuzumab-resistant cells compared with wild-type cells ([4]; spheroids): slightly improved; inhibition of spheroid growth ([4]; trastuzumab-resistant cells, series dilution, six days): significantly reduced spheroid growth; completely regressed tumors [5]: no complete regressions were observed; total ErbB3 expression [6]: increased total ErbB3 expression; inhibition of cell proliferation (BT474-M3 cells; basal conditions): 24%; inhibition of cell proliferation (BT474-M3 cells; [11]): 33%; inhibition of cell proliferation [7]: maintained similar inhibitory activity; total ErbB3 expression ([2]; end of study tumor lysates): increased total ErbB3 expression; activity in reducing pErbB3 levels with tumoral HRG expression ([2]; end of study tumor lysates): increased effectiveness; ratio of pERK and totERK levels [2]: effective at reducing pERK production in the presence of HRG; ratio of pErbB3 to total ErbB3 [2]: decreased ErbB3 activity even in the presence of HRG; ratio of phospho-Akt to total Akt [2]: effective at reducing pAkt production in the presence of HRG; effect of tumoral HRG overexpression on efficacy (tumor volume) (BT474-M3-GFP-HRG tumors): modestly improved; inhibition of spheroid growth [8]: significantly reduced spheroid growth

B1: MM-121: fully human anti-ErbB3 antibody, VH and VL sequences SEQ ID NOs: 1 and 2 (antibody, V domains shown)
VH: EVQLLESGGGLVQPGGSLRLSCAASGFTFSHYVMAWVRQAPGKGLEWVSSISSSGGWTLYADSVKGRFTISRDNSKNTLYLQMNSLRAEDTAVYYCTRGLKMATIFDYWGQGTLVTVSS
VL: QSALTQPASVSGSPGQSITISCTGTSSDVGSYNVVSWYQQHPGKAPKLIIYEVSQRPSGVSNRFSGSKSGNTASLTISGLQTEDEADYYCCSYAGSSIFVIFGGGTKVTVL
Q: B1 was tested. Which “effect on sensitivity of spheroids to erlotinib, dose range” value ([9]; 1 μM MM-121 added to erlotinib 0 to 10 μM, 10 nM HRG, all eight cell lines) did it give?
A: The value was “restore sensitivity of the spheroids to erlotinib”.

Q: And the “effect on sensitivity of the cells to erlotinib” value ([9]; MM-121 1 μM with erlotinib 1 μM, HRG-stimulated cells, all five cell lines)?
A: Its value is “greatly improve sensitivity of the cells to erlotinib”.

Q: What about the “inhibition of HRG-induced ErbB3, AKT and ERK phosphorylation” value ([10]; MM-121 2 mM to 7.6 pM pre-incubated 30 minutes, 25 nM heregulin 10 minutes, versus HRG control) of the same molecule?
A: Its value is “inhibits HRG-induced ErbB3, AKT and ERK phosphorylation”.

Q: And the “maximal inhibition of pErbB3, pAKT and pERK relative to unstimulated control” value ([10]; in most cases)?
A: The value was “near or below basal signaling levels”.

Q: What about the pAKT production (pAKT in A2780cis cells) of the same molecule?
A: Its pAKT production is “gradual decrease in pAKT production at all dose levels”.
